The record followed here is PubChem BioAssay (NCI).

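In this assay, cells in 96-well plates receive the compound at five concentrations for 48 hours. Endpoints are linearly interpolated between the surrounding concentrations. GI50: concentration for 50% inhibition of growth. At the TGI there is no net growth.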

Among the test systems are MOLT-4 leukemia; OVCAR-3 ovarian; SW-620 colon; UACC-62 melanoma; SF-539 CNS; CAKI-1 renal; U251 CNS; A549 NSCLC; SNB-19 CNS; EKVX NSCLC.
What all share (assay): inhibition of tumour cell growth, NCI panel, 48 h

As to `COc1cc2c(cc1OC)C(=O)C(Br)CC2` (centres undefined), the GI50 with MOLT-4 leukemia is 3.22 µM; with OVCAR-3 ovarian, 2.5 µM; with SW-620 colon, 2.71 µM; in the assay on UACC-62 melanoma, 2.01 µM; with SF-539 CNS, 3.12 µM; in the assay with CAKI-1 renal, 3.56 µM. The GI50 was 12.8 µM with U251 CNS, 11.4 µM in the assay on A549 NSCLC and 8.96 µM in the assay with SNB-19 CNS. In addition, the TGI was determined as 15 µM in the assay with MOLT-4 leukemia; 6.88 µM in the assay on OVCAR-3 ovarian; 6.39 µM in the assay with SW-620 colon; 4.55 µM in the assay on UACC-62 melanoma; 11.2 µM with SF-539 CNS; 12.4 µM in the assay with CAKI-1 renal. Also, the TGI in the assay on U251 CNS was found to be 25.7 µM; in the assay on A549 NSCLC, 27.7 µM; in the assay on SNB-19 CNS, 21.3 µM.

Regarding `CCOC(=O)Cc1c(Cc2[nH]c(C(=O)OCc3ccccc3)c(CC(=O)OCC)c2CC(=O)OCC)[nH]c(C(=O)OCc2ccccc2)c1CC(=O)OCC`, the TGI in the assay with MOLT-4 leukemia, in the assay with OVCAR-3 ovarian, in the assay on SW-620 colon, in the assay on UACC-62 melanoma, in the assay on SF-539 CNS and in the assay on CAKI-1 renal was above 100 µM in each case. Besides, the TGI in the assay with U251 CNS, in the assay with A549 NSCLC and in the assay on SNB-19 CNS was above 100 µM in each case.

On to `COc1cccc(NC(=O)c2sc3nc4c(cc3c2N)CCCC4)c1`, for which the GI50 was 0.765 µM in the assay on MOLT-4 leukemia; 0.329 µM with OVCAR-3 ovarian; 0.45 µM with SW-620 colon; 0.391 µM in the assay with UACC-62 melanoma; 0.368 µM with SF-539 CNS; 0.503 µM in the assay on CAKI-1 renal. For the same compound, the GI50 in the assay with U251 CNS was 0.607 µM; in the assay with A549 NSCLC, 0.58 µM; in the assay on SNB-19 CNS it was 0.813 µM. Further, the TGI was above 100 µM in the assay with MOLT-4 leukemia; 2.38 µM in the assay with OVCAR-3 ovarian; above 100 µM in the assay on SW-620 colon; above 100 µM in the assay on UACC-62 melanoma; 12.8 µM in the assay on SF-539 CNS; 66.3 µM with CAKI-1 renal. Moreover, the TGI is 19.2 µM in the assay on U251 CNS, above 100 µM in the assay with A549 NSCLC and 53.5 µM with SNB-19 CNS.

On to `Cc1ccc(-c2c(C#N)c(N)nc(N3CCOCC3)c2C#N)o1`, for which the GI50 in the assay on MOLT-4 leukemia was 61.9 µM; in the assay on EKVX NSCLC it was 21.2 µM; in the assay on SW-620 colon, above 100 µM; in the assay on UACC-62 melanoma it was 39 µM; with SF-539 CNS, 48.3 µM; in the assay with A549 NSCLC, 57.1 µM. Also, the TGI in the assay on MOLT-4 leukemia, in the assay on EKVX NSCLC, with SW-620 colon, with UACC-62 melanoma, with SF-539 CNS and in the assay on A549 NSCLC was above 100 µM each time.

`ClC(=Nc1cccc2ccccc12)N(c1ccccc1)c1ccccc1`: the TGI with OVCAR-3 ovarian, in the assay on SW-620 colon, with UACC-62 melanoma, in the assay on CAKI-1 renal, in the assay on U251 CNS and in the assay on A549 NSCLC was above 100 µM throughout. This compound also displayed a TGI with SNB-19 CNS above 100 µM.

Take `Cn1cc(-c2ccc(=O)n(Cc3cccc(-c4ncc(OCCN5CCOCC5)cn4)c3)n2)cn1`: the GI50 was 36.4 µM in the assay on MOLT-4 leukemia; 58 µM with OVCAR-3 ovarian; above 100 µM with SW-620 colon; 48.7 µM in the assay with UACC-62 melanoma; above 100 µM in the assay with SF-539 CNS; above 79.7 µM in the assay with CAKI-1 renal. The GI50 is 92.1 µM with U251 CNS, 71.7 µM in the assay with A549 NSCLC and above 87.4 µM in the assay on SNB-19 CNS. For the same compound, the TGI in the assay with MOLT-4 leukemia, in the assay with OVCAR-3 ovarian, in the assay on SW-620 colon, with UACC-62 melanoma, in the assay on SF-539 CNS and in the assay on CAKI-1 renal was above 100 µM throughout. Also, the TGI in the assay with U251 CNS, with A549 NSCLC and in the assay on SNB-19 CNS was above 100 µM throughout.

Regarding `CC12OC(C(=O)C13CC3)C1C(=O)c3ccccc3C(=O)C12` (centres undefined), the GI50 in the assay on MOLT-4 leukemia was 32 µM; in the assay with EKVX NSCLC, 4.48 µM; with SF-539 CNS, 24.2 µM; in the assay on CAKI-1 renal it was 21.6 µM; in the assay with A549 NSCLC, 37.2 µM; with SNB-19 CNS, 36.4 µM. For the same compound, the TGI with MOLT-4 leukemia was above 100 µM; with EKVX NSCLC it was 38.4 µM; in the assay on SF-539 CNS, 54.6 µM; in the assay with CAKI-1 renal it was 38.5 µM; in the assay with A549 NSCLC, above 100 µM; in the assay with SNB-19 CNS, above 100 µM.

Turning to `COc1cc2cc(Oc3ccc(NC(=O)Nc4cccc(C(F)(F)F)c4)cc3)c(C)nc2cc1OCCN1CCCCC1`, the GI50 with OVCAR-3 ovarian was 1.71 µM; with EKVX NSCLC, 1.51 µM; in the assay on SW-620 colon it was 1.98 µM; with UACC-62 melanoma it was 1.75 µM; with SF-539 CNS it was 1.67 µM; in the assay with CAKI-1 renal, 1.4 µM. The GI50 in the assay with SNB-19 CNS was 1.66 µM. For the same compound, the TGI in the assay on OVCAR-3 ovarian was found to be 3.15 µM; in the assay on EKVX NSCLC it was 2.92 µM; with SW-620 colon it was 3.6 µM; with UACC-62 melanoma it was 3.15 µM; in the assay with SF-539 CNS it was 3.05 µM; in the assay on CAKI-1 renal, 2.82 µM. Further, the TGI with SNB-19 CNS came out at 3.1 µM.

For the compound `COc1cc[nH]c1/C=C1\C(=O)Nc2ccc(F)c(C#C[C@@H](O)[C@@H](N)[C@@H](C)O)c21`, the GI50 with MOLT-4 leukemia is 0.6 µM; in the assay on OVCAR-3 ovarian it was 0.685 µM; with SW-620 colon, 0.559 µM; with UACC-62 melanoma, 0.277 µM; in the assay on SF-539 CNS it was 0.472 µM; in the assay on CAKI-1 renal, 0.415 µM. In addition, the figures for the GI50 in the assay with U251 CNS, in the assay with A549 NSCLC and in the assay with SNB-19 CNS were 0.445 µM, 0.681 µM and 0.909 µM, respectively. In addition, the TGI in the assay with MOLT-4 leukemia stood at 2.06 µM; in the assay with OVCAR-3 ovarian, 2.26 µM; in the assay with SW-620 colon, 3.07 µM; in the assay with UACC-62 melanoma it was 0.853 µM; with SF-539 CNS it was 1.12 µM; with CAKI-1 renal, 5.73 µM. Also, the TGI with U251 CNS stood at 2.61 µM; in the assay with A549 NSCLC, 3.13 µM; in the assay on SNB-19 CNS, 5.51 µM.

As for `COc1ccc(-c2oc3cc(O)c(OC)c(O)c3c(=O)c2OC2OC(CO)C(O)C(O)C2O)cc1` (centres undefined), the TGI in the assay on MOLT-4 leukemia, in the assay on OVCAR-3 ovarian, in the assay on EKVX NSCLC, with SW-620 colon, in the assay on UACC-62 melanoma and in the assay on SF-539 CNS was above 100 µM each time. Also, the TGI in the assay on U251 CNS, with A549 NSCLC and in the assay on SNB-19 CNS was above 100 µM in each case.

With `COc1ccc(/C=C2/CCCC/C2=N/O)cc1`, the TGI in the assay with MOLT-4 leukemia, in the assay with OVCAR-3 ovarian, in the assay with EKVX NSCLC, with SW-620 colon, in the assay with UACC-62 melanoma and in the assay on SF-539 CNS was above 100 µM throughout. Besides, the TGI in the assay with U251 CNS, in the assay on A549 NSCLC and with SNB-19 CNS was above 100 µM throughout.
